ChEMBL document CHEMBL5518181, “Studies of antibacterial activity (in vitro and in vivo) and mode of action for des-acyl tridecaptins (DATs)” (Eur J Med Chem, 2024)
Converted amounts (≈) assume the structure as drawn.

What was measured:
[1] = test system: Klebsiella pneumoniae; experiment: Antibacterial activity against wild-type Klebsiella pneumoniae ATCC 13883 assessed as inhibition of bacterial growth incubated for 18 hrs; format: functional; details: read-out: MIC100
[2] = test system: Escherichia coli; experiment: Antibacterial activity against wild-type Escherichia coli ATCC 25922 assessed as inhibition of bacterial growth incubated for 18 hrs; format: functional; details: read-out: MIC100
[3] = Cytotoxicity against human HepG2 cells incubated for 40 hrs by celltiter-glo luminescent cell viability assay; format: toxicity, cell-based
[4] = Binding affinity to gram negative bacterial lipid II assessed as dissociation constant by ITC analysis; design: species or system Bacteria
[5] = Hemolytic activity in human red blood cells at 400 ug/ml incubated for 45 mins by spectrophotometric analysis relative to control; format: toxicity, cell-based, Erythrocyte; details: red blood cells (erythrocytes), at 400 µg/mL, read-out: Activity
[6] = test system: Escherichia coli; experiment: Antibacterial activity against wild-type Escherichia coli ATCC 25922 assessed as inhibition of bacterial growth by measuring fold increase in MIC incubated for 18 hrs in presence of 50% heat inactivated human serum relative to control; format: functional
[7] = test system: Acinetobacter baumannii; experiment: Antibacterial activity against wild-type Acinetobacter baumannii ATCC 19606 assessed as inhibition of bacterial growth incubated for 20 hrs; format: functional; details: read-out: MIC100
[8] = test system: Klebsiella pneumoniae; experiment: Antibacterial activity against wild-type Klebsiella pneumoniae ATCC 13883 assessed as inhibition of bacterial growth incubated for 18 hrs in presence of 50% heat inactivated human serum; format: functional; details: read-out: MIC100
[9] = test system: Escherichia coli; experiment: Antibacterial activity against wild-type Escherichia coli ATCC 25922 assessed as inhibition of bacterial growth incubated for 18 hrs in presence of 50% heat inactivated human serum; format: functional; details: read-out: MIC100
[10] = test system: Escherichia coli; experiment: Antibacterial activity against Escherichia coli ATCC 25922 harboring hldE knock-out assessed as inhibition of bacterial growth incubated for 18 hrs; format: functional; details: read-out: MIC100
[11] = test system: Staphylococcus aureus; experiment: Antibacterial activity against […] assessed as inhibition of bacterial growth incubated for 18 hrs; format: functional; details: ATCC 29213, read-out: MIC100
[12] = test system: Pseudomonas aeruginosa; experiment: Antibacterial activity against wild-type Pseudomonas aeruginosa PAO1 assessed as inhibition of bacterial growth incubated for 24 hrs; format: functional; details: read-out: MIC100
[13] = test system: Escherichia coli; experiment: Antibacterial activity against Escherichia coli ATCC 25922 harboring tolC knock-out assessed as inhibition of bacterial growth incubated for 18 hrs; format: functional; details: read-out: MIC100
[14] = Hydrophobicity of compound assessed as %MeCN at peak elution by RP-HPLC analysis; format: physicochemical

SMILES	Kd [4] [µM]	MIC [1] [mg/L]	MIC [2] [mg/L]	IC50 at 40 h [3] [mg/L]	hemolysis at 0.75 h, 400 ug/ml [5] [%]	fold change (FC) [6]	MIC [7] [mg/L]	MIC [8] [mg/L]	MIC [9] [mg/L]	MIC [10] [mg/L]	MIC [11] [mg/L]	MIC [12] [mg/L]	MIC [13] [mg/L]	MeCN percentage at peak elution [14] [%]
CC[C@H](C)[C@@H](NC(=O)[C@@H](NC(=O)[C@H](CCC(=O)O)NC(=O)[C@H](Cc1ccccc1)NC(=O)[C@@H](CCN)NC(=O)[C@H](CCN)NC(=O)[C@H](CO)NC(=O)[C@@H](Cc1c[nH]c2ccccc12)NC(=O)[C@@H](CO)NC(=O)CNC(=O)[C@@H](CCN)NC(=O)[C@H](NC(=O)CCCCCN)C(C)C)C(C)C)C(=O)N[C@@H](C)C(=O)O	–	32 (≈ 21.2 µM)	64 (≈ 42.4 µM)	> 170	3.5	8	64 (≈ 42.4 µM)	2	2	8 (≈ 5.31 µM)	> 64	> 64	32 (≈ 21.2 µM)	40.1
CC[C@H](C)[C@@H](NC(=O)[C@@H](NC(=O)[C@H](CCC(=O)O)NC(=O)[C@H](Cc1ccccc1)NC(=O)[C@@H](CCN)NC(=O)[C@H](CCN)NC(=O)[C@H](CO)NC(=O)[C@@H](Cc1c[nH]c2ccccc12)NC(=O)[C@@H](CO)NC(=O)CNC(=O)[C@@H](CCN)NC(=O)[C@H](NC(=O)CCN)C(C)C)C(C)C)C(=O)N[C@@H](C)C(=O)O	0.39	2 (≈ 1.36 µM)	≥ 2	> 170	0	–	32 (≈ 21.8 µM)	–	–	0.5 (≈ 0.341 µM)	64 (≈ 43.7 µM)	8 (≈ 5.46 µM)	0.5 (≈ 0.341 µM)	39.8
CC[C@H](N)C(=O)N[C@@H](C(=O)N[C@H](CCN)C(=O)NCC(=O)N[C@H](CO)C(=O)N[C@H](Cc1c[nH]c2ccccc12)C(=O)N[C@@H](CO)C(=O)N[C@@H](CCN)C(=O)N[C@H](CCN)C(=O)N[C@@H](Cc1ccccc1)C(=O)N[C@@H](CCC(=O)O)C(=O)N[C@H](C(=O)N[C@@H](C(=O)N[C@@H](C)C(=O)O)[C@@H](C)CC)C(C)C)C(C)C	–	2 (≈ 1.35 µM)	2 (≈ 1.35 µM)	95 (≈ 64.2 µM)	8.8	2	64 (≈ 43.3 µM)	0.5	1	1 (≈ 0.676 µM)	> 64	64 (≈ 43.3 µM)	1 (≈ 0.676 µM)	40.7
CC(C)[C@H](NC(=O)[C@H](CCC(=O)O)NC(=O)[C@H](Cc1ccccc1)NC(=O)[C@@H](CCN)NC(=O)[C@H](CCN)NC(=O)[C@H](CO)NC(=O)[C@@H](Cc1c[nH]c2ccccc12)NC(=O)[C@@H](CO)NC(=O)CNC(=O)[C@@H](CCN)NC(=O)[C@H](N)C(C)C)C(=O)N[C@@H](C(=O)N[C@@H](C)C(N)=O)C(C)(C)C	0.33	2 (≈ 1.44 µM)	16 (≈ 11.5 µM)	127 (≈ 91.1 µM)	1.6	–	–	–	–	–	–	–	–	–
CC[C@H](C)[C@@H](NC(=O)[C@@H](NC(=O)[C@H](CCC(=O)O)NC(=O)[C@H](Cc1ccccc1)NC(=O)[C@@H](CCN)NC(=O)[C@H](CCN)NC(=O)[C@H](CO)NC(=O)[C@@H](Cc1c[nH]c2ccccc12)NC(=O)[C@@H](CO)NC(=O)CNC(=O)[C@@H](CCN)NC(=O)[C@H](NC(=O)[C@@H](N)C(C)C)C(C)C)C(C)C)C(=O)N[C@@H](C)C(=O)O	–	2 (≈ 1.34 µM)	2 (≈ 1.34 µM)	87 (≈ 58.2 µM)	14.6	2	64 (≈ 42.8 µM)	0.5	1	32 (≈ 21.4 µM)	> 64	64 (≈ 42.8 µM)	1 (≈ 0.669 µM)	41.5
CC[C@H](C)[C@@H](NC(=O)[C@@H](NC(=O)[C@H](CCC(=O)O)NC(=O)[C@H](Cc1ccccc1)NC(=O)[C@@H](CCN)NC(=O)[C@H](CCN)NC(=O)[C@H](CO)NC(=O)[C@@H](Cc1c[nH]c2ccccc12)NC(=O)[C@@H](CO)NC(=O)CNC(=O)[C@@H](CCN)NC(=O)[C@H](NC(=O)[C@@H]1CCCN1)C(C)C)C(C)C)C(=O)N[C@@H](C)C(=O)O	–	4 (≈ 2.68 µM)	4 (≈ 2.68 µM)	109 (≈ 73.1 µM)	5.5	2	64 (≈ 42.9 µM)	1	1	2 (≈ 1.34 µM)	> 64	> 64	2 (≈ 1.34 µM)	41.9
CC[C@H](C)[C@@H](NC(=O)[C@@H](NC(=O)[C@H](CCC(=O)O)NC(=O)[C@H](Cc1ccccc1)NC(=O)[C@@H](CCN)NC(=O)[C@H](C)NC(=O)[C@H](CO)NC(=O)[C@@H](Cc1c[nH]c2ccccc12)NC(=O)[C@@H](CO)NC(=O)CNC(=O)[C@@H](CCN)NC(=O)[C@H](NC(=O)[C@H](C)N)C(C)C)C(C)C)C(=O)N[C@@H](C)C(=O)O	3.7	4 (≈ 2.78 µM)	8 (≈ 5.57 µM)	121 (≈ 84.2 µM)	7.9	–	32 (≈ 22.3 µM)	16	8	4 (≈ 2.78 µM)	> 64	> 64	8 (≈ 5.57 µM)	44.3
CC[C@H](C)[C@@H](NC(=O)[C@H](CC1CCCCC1)NC(=O)[C@H](CCC(=O)O)NC(=O)[C@H](Cc1ccccc1)NC(=O)[C@@H](CCN)NC(=O)[C@H](CCN)NC(=O)[C@H](CO)NC(=O)[C@@H](Cc1c[nH]c2ccccc12)NC(=O)[C@@H](CO)NC(=O)CNC(=O)[C@@H](CCN)NC(=O)[C@H](N)C(C)C)C(=O)N[C@@H](C)C(=O)O	–	8 (≈ 5.52 µM)	8 (≈ 5.52 µM)	46 (≈ 31.8 µM)	59.1	–	64 (≈ 44.2 µM)	4	16	2 (≈ 1.38 µM)	> 64	> 64	< 0.125	43.9

Further lines, with some results ahead:

Kd [4] [µM]	SMILES	MIC [1] [mg/L]	MIC [2] [mg/L]	IC50 at 40 h [3] [mg/L]	hemolysis at 0.75 h, 400 ug/ml [5] [%]	fold change (FC) [6]	MIC [7] [mg/L]	MIC [8] [mg/L]	MIC [9] [mg/L]	MIC [10] [mg/L]	MIC [11] [mg/L]	MIC [12] [mg/L]	MIC [13] [mg/L]	MeCN percentage at peak elution [14] [%]
0.8	CC[C@H](C)[C@@H](NC(=O)[C@@H](NC(=O)[C@H](CCC(=O)O)NC(=O)[C@H](Cc1ccccc1)NC(=O)[C@@H](CCN)NC(=O)[C@H](CCN)NC(=O)[C@H](CCN)NC(=O)[C@@H](Cc1c[nH]c2ccccc12)NC(=O)[C@@H](CO)NC(=O)CNC(=O)[C@@H](CCN)NC(=O)[C@H](N)C(C)C)C(C)C)C(=O)N[C@@H](C)C(=O)O	> 64	> 64	> 170	1.1	–	–	–	–	–	–	–	–	–
1.17	CC[C@H](C)[C@@H](NC(=O)[C@@H](NC(=O)[C@H](CCC(=O)O)NC(=O)[C@H](Cc1ccccc1)NC(=O)[C@@H](CN)NC(=O)[C@H](CCN)NC(=O)[C@H](CO)NC(=O)[C@@H](Cc1c[nH]c2ccccc12)NC(=O)[C@@H](CO)NC(=O)CNC(=O)[C@@H](CCN)NC(=O)[C@H](N)C(C)C)C(C)C)C(=O)N[C@@H](C)C(=O)O	> 64	> 64	> 170	1.6	–	–	–	–	–	–	–	–	–
0.23	CC[C@H](C)[C@@H](NC(=O)[C@@H](NC(=O)[C@H](CCC(=O)O)NC(=O)[C@H](Cc1ccccc1)NC(=O)[C@@H](CCN)NC(=O)[C@H](CCN)NC(=O)[C@H](CO)NC(=O)[C@@H](Cc1c[nH]c2ccccc12)NC(=O)[C@@H](CO)NC(=O)CNC(=O)[C@@H](CCN)NC(=O)[C@H](N)C(C)C)C(C)C)C(=O)O	> 64	> 64	> 170	1	–	–	–	–	–	–	–	–	–
0.77	CC[C@H](C)[C@@H](NC(=O)[C@@H](NC(=O)[C@H](CCC(=O)O)NC(=O)[C@H](Cc1ccccc1)NC(=O)[C@@H](CCN)NC(=O)[C@H](CCN)NC(=O)[C@H](CO)NC(=O)[C@@H](Cc1c[nH]c2ccccc12)NC(=O)[C@@H](CO)NC(=O)CNC(=O)[C@@H](CCN)NC(=O)[C@H](NC(=O)[C@H](C)N)C(C)C)C(C)C)C(=O)N[C@@H](C)C(N)=O	32 (≈ 21.8 µM)	8 (≈ 5.46 µM)	> 170	1.5	–	–	–	–	–	–	–	–	–
1.22	CC[C@H](C)[C@@H](NC(=O)[C@@H](NC(=O)[C@H](C)NC(=O)[C@H](Cc1ccccc1)NC(=O)[C@@H](CCN)NC(=O)[C@H](CCN)NC(=O)[C@H](CO)NC(=O)[C@@H](Cc1c[nH]c2ccccc12)NC(=O)[C@@H](CO)NC(=O)CNC(=O)[C@@H](CCN)NC(=O)[C@H](N)C(C)C)C(C)C)C(=O)N[C@@H](C)C(=O)O	> 64	> 64	> 170	0	–	–	–	–	–	–	–	–	–
1.4	CC[C@H](C)[C@@H](NC(=O)[C@@H](NC(=O)[C@H](CCC(N)=O)NC(=O)[C@H](Cc1ccccc1)NC(=O)[C@@H](CCN)NC(=O)[C@H](CCN)NC(=O)[C@H](CO)NC(=O)[C@@H](Cc1c[nH]c2ccccc12)NC(=O)[C@@H](CO)NC(=O)CNC(=O)[C@@H](CCN)NC(=O)[C@H](N)C(C)C)C(C)C)C(=O)N[C@@H](C)C(=O)O	> 64	≥ 32	41 (≈ 29.4 µM)	2.1	–	–	–	–	–	–	–	–	–
